Measurements as given in the supplement of paper PMC10307832.

How the values were obtained:
Assay in all cases: relative viability (nuclei count vs DMSO), 5 days (fraction); higher = more cells survive
[1] = test system: NCI-H2009
Procedure, shortened: (§1)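 Nuclei were stained with Hoechst during a one-step fixation (final 0.05% Triton X-100, 1% formaldehyde, 1 ug/ml Hoechst) carried out 5 days after dosing, then counted on 4× images. The cells, lung cancer lines in 1536-well plates, had been dosed by pin tool the day after seeding with one drug alone or a fixed anchor-drug dose plus five library-drug doses (not always all listed) in √10 steps. Relative viability is the nuclei count in treated wells divided by that in vehicle wells, and each value is the median of duplicate plates.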

[2] = test system: NCI-H2085
Procedure, shortened: as §1

[3] = test system: NCI-H2126
Procedure, shortened: as §1

[4] = test system: NCI-H2347
Procedure, shortened: as §1

[5] = test system: NCI-H358
Procedure, shortened: as §1

[6] = test system: NCI-H460
Procedure, shortened: as §1

[7] = test system: NCI-H650
Procedure, shortened: as §1

[8] = test system: NCI-H838
Procedure, shortened: as §1

[9] = test system: PC-14
Procedure, shortened: as §1

[10] = test system: SW 1573
Procedure, shortened: as §1

[11] = test system: UMC-11
Procedure, shortened: as §1

With Clc1ccc(Nc2nnc(Cc3ccncc3)c3ccccc23)cc1 [Vatalanib] + CS(=O)(=O)N1CCN(Cc2cc3nc(-c4cccc5[nH]ncc45)nc(N4CCOCC4)c3s2)CC1 [Pictilisib] (partner 1 µM) the relative viability ([1]; first compound 0.04 µM) was 0.977, the relative viability ([1]; first compound 0.1265 µM) was 0.656 and the relative viability ([1]; first compound 0.4 µM) was 0.833. For the same molecule, the relative viability ([1]; first compound 1.265 µM) was 0.798, the relative viability ([1]; first compound 4 µM) was 0.885 and the relative viability ([2]; first compound 0.04 µM) was 0.424. For the same molecule, the relative viability ([2]; first compound 0.1265 µM) was 0.524, the relative viability ([2]; first compound 0.4 µM) was 0.44 and the relative viability ([2]; first compound 1.265 µM) was 0.469. The relative viability ([2]; first compound 4 µM) was 0.438, the relative viability ([3]; first compound 0.04 µM) was 0.488 and the relative viability ([3]; first compound 0.1265 µM) was 0.512. For the same molecule, the relative viability ([3]; first compound 0.4 µM) was 0.524, the relative viability ([3]; first compound 1.265 µM) was 0.47 and the relative viability ([3]; first compound 4 µM) was 0.494. For the same molecule, the relative viability ([4]; first compound 0.04 µM) was 0.709, the relative viability ([4]; first compound 0.1265 µM) was 0.723 and the relative viability ([4]; first compound 0.4 µM) was 0.409. For the same molecule, the relative viability ([4]; first compound 1.265 µM) was 0.92, the relative viability ([4]; first compound 4 µM) was 0.319 and the relative viability ([5]; first compound 0.04 µM) was 0.378. It also gave a relative viability ([5]; first compound 0.1265 µM) of 0.361, a relative viability ([5]; first compound 0.4 µM) of 0.397 and a relative viability ([5]; first compound 1.265 µM) of 0.311. It also gave a relative viability ([5]; first compound 4 µM) of 0.353, a relative viability ([6]; first compound 0.04 µM) of 0.361 and a relative viability ([6]; first compound 0.1265 µM) of 0.356. For the same molecule, the relative viability ([6]; first compound 0.4 µM) was 0.378, the relative viability ([6]; first compound 1.265 µM) was 0.352 and the relative viability ([6]; first compound 4 µM) was 0.312. The relative viability ([7]; first compound 0.04 µM) was 0.875, the relative viability ([7]; first compound 0.1265 µM) was 0.914 and the relative viability ([7]; first compound 1.265 µM) was 0.868. It also gave a relative viability ([7]; first compound 4 µM) of 0.909, a relative viability ([8]; first compound 0.04 µM) of 0.477 and a relative viability ([8]; first compound 0.1265 µM) of 0.41. The relative viability ([8]; first compound 0.4 µM) was 0.518, the relative viability ([8]; first compound 1.265 µM) was 0.453 and the relative viability ([8]; first compound 4 µM) was 0.467. For the same molecule, the relative viability ([9]; first compound 0.04 µM) was 0.832, the relative viability ([9]; first compound 0.1265 µM) was 0.712 and the relative viability ([9]; first compound 0.4 µM) was 0.693. For the same molecule, the relative viability ([9]; first compound 1.265 µM) was 0.69, the relative viability ([9]; first compound 4 µM) was 0.679 and the relative viability ([10]; first compound 0.04 µM) was 0.596. The relative viability ([10]; first compound 0.1265 µM) was 0.525, the relative viability ([10]; first compound 0.4 µM) was 0.544 and the relative viability ([10]; first compound 1.265 µM) was 0.408. The relative viability ([10]; first compound 4 µM) was 0.556, the relative viability ([11]; first compound 0.04 µM) was 0.814 and the relative viability ([11]; first compound 0.1265 µM) was 0.746. It also gave a relative viability ([11]; first compound 0.4 µM) of 0.875, a relative viability ([11]; first compound 1.265 µM) of 0.79 and a relative viability ([11]; first compound 4 µM) of 0.794.
